# From patent US4358441A, “Nicotinic derivatives of glucosamine and related pharmaceutical compositions” (Laboratorio Guidotti & C. S.p.A., priority 1980, dated 1982)
# Experiments:
# [1] = system: plasma levels of cholesterol; experiment: Effect of oral administration on plasma levels of cholesterol in the empty rat; type: in vivo, rat (COBS CD (SD) BR male); settings: for Percent variations of plasma cholesterol with respect to the controls: 100 mg/kg oral referred to nicotinic acid; for Percent variations of plasma cholesterol with respect to the controls / Percent variations of plasma cholesterol with respect to the control: empty rat; for Lowering of cholesterolemy: 100 mg/kg oral, rat; for Percent variations of plasma cholesterol with respect to the control: Table 5, 100 mg/kg oral referred to nicotinic acid
# [2] = system: plasma levels of free glycerol; experiment: Effect of oral administration on plasma levels of free glycerol in the empty rat; type: in vivo, rat (COBS CD (SD) BR male); settings: for Percent variations of plasma free glycerol with respect to the controls: empty rat; for Activity on free glycerol: 30 mg/kg oral; for Activity on free glycerol / Time within which the effect on free glycerol disappears: rat; for Time within which the effect on free glycerol disappears: 100 mg/kg oral
# plasma levels of FFA = experiment: Effect of oral administration on plasma levels of FFA in the empty rat; settings: for Percent variations of plasma FFA with respect to the controls / Percent variations of plasma FFA with respect to the control: empty rat; for Time within which the effect on FFA disappears: 100 mg/kg oral, rat; for Percent variations of plasma FFA with respect to the control: Table 5, 100 mg/kg oral referred to nicotinic acid
# [3] = system: plasma levels of triglycerides; experiment: Effect of oral administration on plasma levels of triglycerides in the empty rat; type: in vivo, rat (COBS CD (SD) BR male); settings: for Percent variations of plasma triglycerides with respect to the controls / Percent variations of plasma triglycerides with respect to the control: empty rat; for Time within which the effect on triglycerides disappears: rat; for Percent variations of plasma triglycerides with respect to the control: Table 5, 100 mg/kg oral referred to nicotinic acid
# Solubility = type: physicochemical
# [4] = 30 mg/kg oral referred to nicotinic acid, 1 h
# [5] = 30 mg/kg oral referred to nicotinic acid, 2 h
# [6] = 30 mg/kg oral referred to nicotinic acid, 4 h
# [7] = 30 mg/kg oral referred to nicotinic acid, 6 h
# [8] = 100 mg/kg oral referred to nicotinic acid, 2 h
# [9] = 100 mg/kg oral referred to nicotinic acid, 4 h
# [10] = 100 mg/kg oral referred to nicotinic acid, 6 h
# [11] = 100 mg/kg oral referred to nicotinic acid, 8 h
# [12] = 100 mg/kg oral referred to nicotinic acid, 10 h
# [13] = 100 mg/kg oral referred to nicotinic acid, 16 h
# [14] = 100 mg/kg oral referred to nicotinic acid, 24 h
structure (smiles),measurement,setting,value
"O=C(OCC(COC(=O)c1cccnc1)(COC(=O)c1cccnc1)COC(=O)c1cccnc1)c1cccnc1 [NICERITROLE, pentaerithritol-tetranicotinate]",Percent variations of plasma cholesterol with respect to the controls,[1]; 4 h,-2%
same,Percent variations of plasma cholesterol with respect to the controls,[1]; 6 h,-7%
same,Percent variations of plasma cholesterol with respect to the controls,[1]; 8 h,0%
same,Percent variations of plasma cholesterol with respect to the controls,[1]; 10 h,-10%
same,Percent variations of plasma cholesterol with respect to the controls,[1]; 16 h,-17%
same,Percent variations of plasma cholesterol with respect to the controls,[1]; 24 h,-14%
same,Lowering of cholesterolemy,[1],never significant
same,Percent variations of plasma free glycerol with respect to the controls,[2]; [4],-77%
same,Percent variations of plasma free glycerol with respect to the controls,[2]; [5],-9%
same,Percent variations of plasma free glycerol with respect to the controls,[2]; [6],-4%
same,Percent variations of plasma free glycerol with respect to the controls,[2]; [7],+11%
same,Activity on free glycerol,[2],active only after 1 hour
same,Percent variations of plasma free glycerol with respect to the controls,[2]; [8],-61%
same,Percent variations of plasma free glycerol with respect to the controls,[2]; [9],-34%
same,Percent variations of plasma free glycerol with respect to the controls,[2]; [10],+17%
same,Percent variations of plasma free glycerol with respect to the controls,[2]; [11],+11%
same,Percent variations of plasma free glycerol with respect to the controls,[2]; [12],+4%
same,Percent variations of plasma free glycerol with respect to the controls,[2]; [13],+13%
same,Percent variations of plasma free glycerol with respect to the controls,[2]; [14],+3%
same,Time within which the effect on free glycerol disappears,[2],within the fourth hour
same,Percent variations of plasma FFA with respect to the controls,plasma levels of FFA; [4],-87%
same,Percent variations of plasma FFA with respect to the controls,plasma levels of FFA; [5],-18%
same,Percent variations of plasma FFA with respect to the controls,plasma levels of FFA; [6],+9%
same,Percent variations of plasma FFA with respect to the controls,plasma levels of FFA; [7],+8%
same,Percent variations of plasma FFA with respect to the controls,plasma levels of FFA; [8],-70%
same,Percent variations of plasma FFA with respect to the controls,plasma levels of FFA; [9],-43%
same,Percent variations of plasma FFA with respect to the controls,plasma levels of FFA; [10],+27%
same,Percent variations of plasma FFA with respect to the controls,plasma levels of FFA; [11],+10%
same,Percent variations of plasma FFA with respect to the controls,plasma levels of FFA; [12],-2%
same,Percent variations of plasma FFA with respect to the controls,plasma levels of FFA; [13],+6%
same,Percent variations of plasma FFA with respect to the controls,plasma levels of FFA; [14],-8%
same,Time within which the effect on FFA disappears,plasma levels of FFA,≤ 6 h
same,Percent variations of plasma triglycerides with respect to the controls,[3]; [4],-45%
same,Percent variations of plasma triglycerides with respect to the controls,[3]; [5],-27%
same,Percent variations of plasma triglycerides with respect to the controls,[3]; [6],+13%
same,Percent variations of plasma triglycerides with respect to the controls,[3]; [7],-6%
same,Time within which the effect on triglycerides disappears,[3]; 30 mg/kg oral,≤ 2 h
same,Percent variations of plasma triglycerides with respect to the controls,[3]; [8],-41%
same,Percent variations of plasma triglycerides with respect to the controls,[3]; [9],-56%
same,Percent variations of plasma triglycerides with respect to the controls,[3]; [10],-63%
same,Percent variations of plasma triglycerides with respect to the controls,[3]; [11],-30%
same,Percent variations of plasma triglycerides with respect to the controls,[3]; [12],+9%
same,Percent variations of plasma triglycerides with respect to the controls,[3]; [13],-3%
same,Percent variations of plasma triglycerides with respect to the controls,[3]; [14],+5%
same,Time within which the effect on triglycerides disappears,[3]; 100 mg/kg oral,within the eighth hour
"O=C(OC[C@H](OC(=O)c1cccnc1)[C@@H](OC(=O)c1cccnc1)[C@H](OC(=O)c1cccnc1)[C@@H](COC(=O)c1cccnc1)OC(=O)c1cccnc1)c1cccnc1 [SORBINICATE, D-glucitol hexanicotinate]",Percent variations of plasma cholesterol with respect to the controls,[1]; 4 h,-14%
same,Percent variations of plasma cholesterol with respect to the controls,[1]; 6 h,-15%
same,Percent variations of plasma cholesterol with respect to the controls,[1]; 8 h,-7%
same,Percent variations of plasma cholesterol with respect to the controls,[1]; 10 h,-15%
same,Percent variations of plasma cholesterol with respect to the controls,[1]; 16 h,-13%
same,Percent variations of plasma cholesterol with respect to the controls,[1]; 24 h,-9%
same,Lowering of cholesterolemy,[1],at the tenth hour only
same,Percent variations of plasma free glycerol with respect to the controls,[2]; [4],-59%
same,Percent variations of plasma free glycerol with respect to the controls,[2]; [5],-27%
same,Percent variations of plasma free glycerol with respect to the controls,[2]; [6],+2%
same,Percent variations of plasma free glycerol with respect to the controls,[2]; [7],-7%
same,Activity on free glycerol,[2],active only after 1 hour
same,Percent variations of plasma free glycerol with respect to the controls,[2]; [8],-70%
same,Percent variations of plasma free glycerol with respect to the controls,[2]; [9],-3%
same,Percent variations of plasma free glycerol with respect to the controls,[2]; [10],+3%
same,Percent variations of plasma free glycerol with respect to the controls,[2]; [11],+20%
same,Percent variations of plasma free glycerol with respect to the controls,[2]; [12],+8%
same,Percent variations of plasma free glycerol with respect to the controls,[2]; [13],-1%
same,Percent variations of plasma free glycerol with respect to the controls,[2]; [14],-1%
same,Time within which the effect on free glycerol disappears,[2],within the fourth hour
same,Percent variations of plasma FFA with respect to the controls,plasma levels of FFA; [4],-56%
same,Percent variations of plasma FFA with respect to the controls,plasma levels of FFA; [5],-14%
same,Percent variations of plasma FFA with respect to the controls,plasma levels of FFA; [6],+13%
same,Percent variations of plasma FFA with respect to the controls,plasma levels of FFA; [7],-9%
same,Percent variations of plasma FFA with respect to the controls,plasma levels of FFA; [8],-72%
same,Percent variations of plasma FFA with respect to the controls,plasma levels of FFA; [9],-1%
same,Percent variations of plasma FFA with respect to the controls,plasma levels of FFA; [10],+6%
same,Percent variations of plasma FFA with respect to the controls,plasma levels of FFA; [11],+4%
same,Percent variations of plasma FFA with respect to the controls,plasma levels of FFA; [12],-5%
same,Percent variations of plasma FFA with respect to the controls,plasma levels of FFA; [13],+6%
same,Percent variations of plasma FFA with respect to the controls,plasma levels of FFA; [14],+2%
same,Time within which the effect on FFA disappears,plasma levels of FFA,≤ 4 h
same,Percent variations of plasma triglycerides with respect to the controls,[3]; [4],-42%
same,Percent variations of plasma triglycerides with respect to the controls,[3]; [5],-16%
same,Percent variations of plasma triglycerides with respect to the controls,[3]; [6],+6%
same,Percent variations of plasma triglycerides with respect to the controls,[3]; [7],-3%
same,Time within which the effect on triglycerides disappears,[3]; 30 mg/kg oral,≤ 2 h
same,Percent variations of plasma triglycerides with respect to the controls,[3]; [8],-61%
same,Percent variations of plasma triglycerides with respect to the controls,[3]; [9],-46%
same,Percent variations of plasma triglycerides with respect to the controls,[3]; [10],-55%
same,Percent variations of plasma triglycerides with respect to the controls,[3]; [11],-5%
same,Percent variations of plasma triglycerides with respect to the controls,[3]; [12],+9%
same,Percent variations of plasma triglycerides with respect to the controls,[3]; [13],-3%
same,Percent variations of plasma triglycerides with respect to the controls,[3]; [14],-25%
same,Time within which the effect on triglycerides disappears,[3]; 100 mg/kg oral,within the eighth hour
"O=C(N[C@H]1[C@H](OC(=O)c2cccnc2)O[C@H](COC(=O)c2cccnc2)[C@@H](OC(=O)c2cccnc2)[C@@H]1OC(=O)c1cccnc1)c1cccnc1 [β, β-N-nicotinoyl-glucosamine tetranicotinate]",Percent variations of plasma cholesterol with respect to the control,[1]; 4 h,-2%
same,Percent variations of plasma cholesterol with respect to the control,[1]; 8 h,-17%
same,Percent variations of plasma cholesterol with respect to the control,[1]; 24 h,-43%
same,Solubility,Solubility,"slightly soluble in acetone, ethanol and chloroform, but soluble in dilute acids"
same,Percent variations of plasma FFA with respect to the control,plasma levels of FFA; 2 h,-67%
same,Percent variations of plasma FFA with respect to the control,plasma levels of FFA; 4 h,-30%
same,Percent variations of plasma FFA with respect to the control,plasma levels of FFA; 8 h,-44%
same,Percent variations of plasma triglycerides with respect to the control,[3]; 2 h,-53%
same,Percent variations of plasma triglycerides with respect to the control,[3]; 4 h,-77%
same,Percent variations of plasma triglycerides with respect to the control,[3]; 8 h,-69%
"N[C@H]1C(OC(=O)c2cccnc2)O[C@H](COC(=O)c2cccnc2)[C@@H](OC(=O)c2cccnc2)[C@@H]1OC(=O)c1cccnc1 (stereo partly drawn) [glucosamine tetranicotinate, Glucosamine tetranicotinate]",Percent variations of plasma cholesterol with respect to the control,[1]; 4 h,-16%
same,Percent variations of plasma cholesterol with respect to the control,[1]; 8 h,-26%
same,Percent variations of plasma cholesterol with respect to the control,[1]; 24 h,-59%
same,Solubility,Solubility,soluble in the common organic solvents and in acid solutions
same,Percent variations of plasma FFA with respect to the control,plasma levels of FFA; 2 h,-70%
same,Percent variations of plasma FFA with respect to the control,plasma levels of FFA; 4 h,-48%
same,Percent variations of plasma FFA with respect to the control,plasma levels of FFA; 8 h,-65%
same,Percent variations of plasma triglycerides with respect to the control,[3]; 2 h,-54%
same,Percent variations of plasma triglycerides with respect to the control,[3]; 4 h,-53%
same,Percent variations of plasma triglycerides with respect to the control,[3]; 8 h,-82%
"O=C(N[C@H]1[C@@H](OC(=O)c2cccnc2)O[C@H](COC(=O)c2cccnc2)[C@@H](OC(=O)c2cccnc2)[C@@H]1OC(=O)c1cccnc1)c1cccnc1 [α, α-N-nicotinoyl-glucosamine tetranicotinate]",Percent variations of plasma cholesterol with respect to the control,[1]; 4 h,-4%
same,Percent variations of plasma cholesterol with respect to the control,[1]; 8 h,-12%
same,Percent variations of plasma cholesterol with respect to the control,[1]; 24 h,-44%
same,Solubility,Solubility,soluble in the common non-polar organic solvents
same,Percent variations of plasma FFA with respect to the control,plasma levels of FFA; 2 h,-64%
same,Percent variations of plasma FFA with respect to the control,plasma levels of FFA; 4 h,-13%
same,Percent variations of plasma FFA with respect to the control,plasma levels of FFA; 8 h,-7%
same,Percent variations of plasma triglycerides with respect to the control,[3]; 2 h,-56%
same,Percent variations of plasma triglycerides with respect to the control,[3]; 4 h,-68%
same,Percent variations of plasma triglycerides with respect to the control,[3]; 8 h,-47%
